These results are taken from patent publication EP1090646A2, “Labelled d-mannoheptulose derivatives and their use for imaging of the endocrine pancreas” (UNIVERSITE LIBRE DE BRUXELLES, priority 1999, dated 2001).

One data set relates to pieces of pancreas. As to the kind of experiment: Apparent distribution space in pieces of pancreas from control and STZ rats. As to conditions: for apparent distribution space in the presence of D-glucose relative to its absence: D-glucose 8.3 mM; for final distribution space relative to the initial incubation medium radioactive content: after the two successive incubations. Here is the method: (§1) Unless otherwise mentioned, the pancreatic pieces or isolated islets were submitted after incubation, to four successive washes conducted at 4°C with a medium containing 20.0 µM cytochalasin B (Sigma, St. Louis, MO, USA).
In the next series of experiments, the possible uptake of D-[^3H]mannoheptulose was compared to that of its hexaacetate ester in pieces of pancreas from normal rats (Figure 2).
In the last set of experiments in this series, pieces of pancreas from either normal or STZ rats were first incubated for 60 min at 37°C in the presence of 8.3 mM D-glucose, then submitted to 3 washes at 4°C in the presence of the hexose (8.3 mM) and cytochalasin B (20.0 µM), further incubated for 60 min at 37°C, still in the presence of D-glucose and the mould metabolite, and eventually submitted to 4 washes at 4°C prior to measurement of their radioactive content.

In data set [1] the test system is isolated pancreatic islets. Here is the method: as §1
In a further series of experiments, groups of 20 islets each were submitted, after incubation, to 6 successive washes at 4°C in the presence of cytochalasin B (20.0 µM).
In the last set of experiments in this series, groups of 20 islets each were incubated for 60 min at 37°C in the presence of D-[^3H]mannoheptulose (0.1 mM), washed thrice at 4°C, further incubated for 60 min at 37°C in the absence of the heptose but presence of cytochalasin B (20.0 µM), again submitted to 4 successive washes, and eventually examined for their radioactive content.

For data set [2] the following is noted: one day after intraperitoneal injection. Here is the method: Female Wistar rats (220-230 g body wt.) were injected intravenously with streptozotocin (0.25 µmol/g body wt.) on day zero. Eight to nine days later, they were transplanted with 1,500-6,000 islets prepared by the collagenase procedure (2) from rats of the same sex and strain (Iffa Credo, L'Arbresle, France). The islets were placed (1,500 islets per module) in 1-4 implantation modules (Statice Santé, Besançon, France), which were inserted, under pentobarbital anaesthesia (0.5-0.6 µmol/g body wt.; Nembutal, Sanofi, Brussels, Belgium), into the peritoneal cavity. The modules were equipped with a 20 µm thick polycarbonate membrane (Whatman, Maidstone, Kent, UK) with 6 x 10^8 pores (diameter : 50 nm) per cm^2. The glycemia of the rats was monitored in blood samples collected from the severed end of the tail.
D-[^3H]mannoheptulose (100 µCi in 0.3 ml saline containing 0.1 mM unlabelled D-mannoheptulose) was injected intraperitoneally and the animals killed by decapitation 24 hours later after a last blood sampling from the severed end of the tail had been obtained for measurement of glycemia. The blood collected after decapitation in heparinized vials was used for measurements of radioactivity in aliquots of blood, plasma and erythrocytes, as well as for determination of plasma D-glucose and insulin concentration. Samples of the liver, gastrocnemius muscle and kidney, as well as the whole pancreas, were homogenised in 1.5 ml H2O, aliquot parts of the homogenates being used for DNA and radioactive measurements. The fluid present in the implantation device was aspirated and also examined for its radioactive content. Thereafter, the implantation device was repeatedly frozen and thawn in 0.4 ml H2O, aliquot parts of this extract being then again used for both DNA and radioactive determinations.
The methods used to measure DNA content (3), glycemia (Glycotronic C; Macherey-Nagel, Düren, Germany), plasma D-glucose (4) and insulin (5) concentrations were previously described in the cited references.

How the values of data set [3] were obtained:
Two preparations of D-[^3H]mannoheptulose were used. The first preparation, used in a few in vitro experiments and in one set of in vivo experiments (animals injected 30 to 60 min before sacrifice), was a product from Nycomed Amersham (Little Chalfont, Buckinghamshire, UK). […] The second preparation used in all other experiments was a product from NEN Life Science Products (Zaventem, Belgium). […] In all experiments conducted in vivo, the animals were injected intravenously with D-[^3H]mannoheptulose (10-40 µCi, and 200 µCi in the case of the rats killed 48 hours after this injection) placed in 300 µl of saline. Except in the animals killed 30-60 min after D-[^3H]mannoheptulose injection, the inoculate also contained 0.1 mM unlabelled D-mannoheptulose.
In the in vivo experiments, the STZ rats were either not treated with insulin (animals killed 30-60 min after D-[^3H]mannoheptulose injection) or received twice daily 6 U of insulin (Insulatard, Novo Nordisk, Bagsvaerd, Denmark) subcutaneously, the last of these injections being given at about 5 p.m. on the day before either the injection of D-[^3H]mannoheptulose (animals killed 15 min after D-[^3H]mannoheptulose administration) or the sacrifice of the rats (rats examined 48 hours after D-[^3H]mannoheptulose injection). The animals killed 15 min after the injection of D-[^3H]mannoheptulose received a total of either 5 insulin injections, the first being made at about 5 p.m. on the day after streptozotocin administration, or 6 insulin injections given between the third and fifth day after streptozotocin administration. In the rats killed 48 hours after the injection of D-[^3H]mannoheptulose, the insulin treatment was initiated at 9 a.m. 3 days after streptozotocin administration and continued for a total of 5 days.
At stated times after D-[^3H]mannoheptulose intravenous injection, the rats were killed by decapitation, blood was collected in heparinized vials and the plasma separated for measurement of its radioactive content, as well as D-glucose^13 and insulin^14 concentrations. Samples of gastrocnemius muscle, liver, kidney and pancreas were weighed, homogenised in 1.5-3.0 ml of water, and aliquot parts of these homogenates examined for their radioactive content by liquid scintillation.
All radioactive data were calculated as dpm/µl of plasma or dpm/mg wet wt. (muscle, liver, kidney, pancreas). In these four tissues, the results were eventually expressed as µl/mg wet wt., by dividing the radioactive content (dpm/mg) by the paired plasma value (dpm/µl).

The source holds these as a separate data set.
Data set [4] relates to rat pancreatic islets or dispersed islet cells. As to conditions: 60 min incubation at 37°C.
Data set [5] deals with tumoral islet cells of the RINm5F line.
For data set [6], the system named is tumoral islet cells of the INS-1 line.
Setting [7] is: up to the 60th min after injection.

Read-outs that look alike come from different tables or passages of the source.

With `[3H]O[3H]` [^3HOH, reference compound], the “apparent distribution space after two successive incubations relative to that after first incubation and immediate washes” value in the data set on pieces of pancreas (normal or STZ rats pooled (n = 16), second 60 min incubation with D-glucose and cytochalasin B) is on record as “no more than 1.8 ± 0.4%”.
As for `[3H][C@@](O)(CO)[C@@H](O)[C@H](O)[C@@H](O)C=O` [D-[5-^3H]glucose, reference compound], in data set [1] (8.3 mM, 30 min, 6 washes), the “apparent distribution space after incubation at 4°C relative to 37°C” value turned out to be 55.5 ± 8.3%.
`[3H][C@@](O)([C@H](O)CO)[C@H](O)[C@H](O)C(=O)CO` [D-[^3H]mannoheptulose]: in data set [2], the “calculated radioactive content of the transplanted islets (dpm/mg wet wt.) relative to paired plasma radioactive content (dpm/µl)” value is 6.49 ± 1.27, the paired islet/pancreas ratio is recorded as 11.59 ± 0.03, the “radioactive content calculated for the transplanted islets” value is reported as 332.7 ± 30.7 dpm/mg wet weight and the “radioactive content of the kidney” value is 51.0 ± 0.9 dpm/mg wet weight. In data set [2], the “radioactive content of the liver” value was 64.5 ± 6.4 dpm/mg wet weight, the “radioactive content of the muscle” value came out at 28.9 ± 7.8 dpm/mg wet weight and the “radioactive content of the pancreas” value worked out at 28.7 ± 2.6 dpm/mg wet weight. Further, the “volume of distribution, as judged from the plasma radioactive content” value in data set [2] (STZ diabetic rats with transplanted islets) is recorded as 10.0 ± 2.2 ml/g body weight. Besides, the apparent distribution space in data set [1] (0.1 mM, 10-120 min incubation at 37°C, only 3 washes at 4°C with cytochalasin B 20.0 µM) is reported as no less than 5.5 nl/islet. Further, the “apparent distribution space in the presence of D-glucose relative to reference value (no D-glucose)” value in data set [1] (0.1 mM, 30 or 120 min at 37°C, D-glucose 8.3 mM, 3 washes) came out at 161.4 ± 23.7%. Moreover, in data set [1] (0.1 mM, 37°C, 8.3 mM D-glucose, 6 washes), the “increase of apparent distribution space between the 15th and 120th min of incubation” value was 73.5 ± 30.3%. Also, the “apparent distribution space relative to that of D-[5-3H]glucose (8.3 mM)” value in data set [1] (0.1 mM, 30 min at 37°C, absence of D-glucose, 6 washes) came to 77.3 ± 9.4%. Also, the “final radioactive content of islets first incubated with 8.3 mM D-glucose relative to absence of the hexose” value in data set [1] (0.1 mM, 60 min 37°C, washes, further 60 min with cytochalasin B 20.0 µM) came out at 168.5 ± 19.1%. Also, the “final radioactive content with cytochalasin B in the first incubation medium containing 8.3 mM D-glucose, relative to reference value” in data set [1] (0.1 mM, cytochalasin B 20.0 µM, 60 min 37°C then second 60 min incubation) is 103.7 ± 14.7%. For the same compound, in the data set on pieces of pancreas (0.1 mM, 10 to 60 min at 37°C, 8.3 mM D-glucose, overall mean), the “apparent distribution space in STZ rats relative to control value” is 89.2 ± 3.6%. The “apparent distribution space in the presence of cytochalasin B relative to reference value (no cytochalasin B)” value in the data set with pieces of pancreas (0.1 mM, 60 min, 8.3 mM D-glucose, cytochalasin B 20.0 µM, pooled control and STZ rats) worked out at 101.1 ± 4.1%. Further, the “apparent distribution space after two successive incubations relative to that after first incubation and immediate washes” value in the data set with pieces of pancreas (0.1 mM, STZ rats) worked out at 9.4 ± 0.4%. In addition, in the data set with pieces of pancreas (0.1 mM, control rats), the “apparent distribution space after two successive incubations relative to that after first incubation and immediate washes” value was 14.4 ± 0.4%. In addition, the “ratio between the mean values of apparent distribution space after 60/10 min incubation” value in the data set on pieces of pancreas (0.1 mM, normal rats, 37°C, 8.3 mM D-glucose) is 1.36 ± 0.16. Moreover, in the data set with pieces of pancreas (STZ rats), the “final distribution space when the first incubation was conducted at 4°C relative to 37°C” value came out at 38.0 ± 3.9% and the “final distribution space relative to the initial incubation medium radioactive content” value is reported as 1.34 ± 0.11%. Besides, the “apparent distribution space in the presence of D-glucose relative to its absence” value in the data set with pieces of pancreas (STZ rats, 0.1 mM, 60 min) is reported as 83.7 ± 4.5%. Moreover, the “final distribution space relative to the initial incubation medium radioactive content” value in the data set on pieces of pancreas (control animals) is listed as 1.78 ± 0.10%. Further, in the data set on pieces of pancreas (control rats), the “final distribution space when the first incubation was conducted at 4°C relative to 37°C” value was 36.9 ± 4.2%. The “apparent distribution space in the presence of D-glucose relative to its absence” value in the data set on pieces of pancreas (control rats, 0.1 mM, 60 min) came to 106.7 ± 6.5%. In addition, the “radioactive content of the pancreatic gland relative to paired plasma value, STZ rats as % of mean control value” in data set [3] (15-2880 min after intravenous injection, all available data pooled) was determined as 81.6 ± 4.2%. The “liver/plasma radioactive ratio, STZ rats as % of normal rats” value in data set [3] (STZ animals not treated with insulin, tracer amount only, no unlabelled heptose) is given as 56.1 ± 3.3%. The “paired ratio liver/plasma radioactivity, STZ rats as % of control rats” value in data set [3] (insulin-treated STZ rats (n = 11)) was determined as 109.5 ± 8.3%. Besides, in data set [3] (rat, in vivo), the “kidney radioactive content relative to paired plasma value, STZ rats as % of normal rats” value is listed as 68.1 ± 6.5% and the “paired ratio muscle/plasma radioactivity, STZ rats as % of control rats” value is on record as 87.7 ± 6.2%. Moreover, the “radioactive content of the pancreatic gland relative to paired plasma value, STZ rats as % of mean control value” in data set [3] (results at 15 min not taken into account) is listed as 77.9 ± 5.6%. Moreover, in data set [3] (setting [7]), the muscle/liver ratio is on record as no more than 17.00 ± 1.17%, the paired pancreas/muscle ratio came to 125.71 ± 7.83% and the pancreas/liver ratio is on record as 21.26 ± 1.07%. The “radioactive content of the transplanted islets relative to that found in the pancreas” value (60 min after the intravenous injection) is on record as “about 10 times”. The “radioactive content in the liver and transplanted islets relative to the pancreatic gland” value (one hour after intravenous injection) is 5-8 times. Further, the “apparent intracellular distribution space relative to the intracellular 3HOH space” value in data set [4] is reported as roughly 50%. Further, the “apparent distribution space relative to the intracellular 3HOH space” value in data set [5] is “about 3%”. For the same compound, in data set [6], the “apparent distribution space relative to the intracellular 3HOH space” value is reported as roughly 9%.
